Results taken from patent US10376468B2, “Block copolymers and self-assembling nanoparticles formed therefrom” (International Business Machines Corporation, priority 2017, dated 2019).

System: nude BALB/c mice bearing subcutaneous PC-3 tumors
Assay: Biodistribution of DiR-loaded mixed micelles, whole body live imaging
Type: in vivo
Settings: tail-vein injection
Description: To test the biodistribution of the micelles of the invention, DiR, a near-infrared fluorophore, was encapsulated in MM5D micelles and administered through tail-vein intravenous injection to nude BALB/c mice bearing subcutaneous PC-3 tumors. The in vivo real-time biodistribution of the fluorophore was studied by whole body live imaging at various time points over seven days. An equivalent amount of free DiR was similarly administered to a control group of mice.
The loading of DiR in MM5D micelles was carried out according to the DOX-loading protocol described above. Briefly, polymer (10 mg) and DiR (0.3 mg) were dissolved in DMSO (2 mL) and the mixture pipetted drop-by-drop into 10 mL of deionized water, with sonification for 10 minutes. The solution was dialyzed against deionized water for 48 hours, with the water changed at 3-, 6-, and 24-hours.
PC-3 cells (5 □ 106) suspended in Matrigel (1:1 ratio) were injected subcutaneously (200 μL) into the right flank of male BALB/c mice. Five weeks post-injection, when the tumor reached 5-7 mm in diameter, mice were treated with 8 mg/kg DiR-loaded mixed micelles via tail-vein injection or an equivalent amount of free DiR.
Whole-body fluorescence images were taken using Xenogen IVIS 100 with an ICG filter (excitation 710-760 nm, emission at 810-875 nm) at time points ranging from 30 minutes to 7-days post-administration. Anesthetized animals (n=3 for micelle formulation and n=2 for free DiR) were placed ion one lateral position on a heated plate (37° C.) for image acquisition with an exposure time set to 2 seconds. Tumors and organs were removed from sacrificed mice after 7-days post-administration and then imaged.

[1] = organs removed 7-days post-administration

- DiR signal in the subcutaneous tumor at 48-hours post-injection (8 mg/kg or equivalent free DiR): Little or no signal
- Distribution of DiR fluorescence signal at 24-hours (8 mg/kg or equivalent free DiR): concentrated strongly in the liver
- DiR signal in the tumor (FIG. 9, tumors and organs) [1]: little or no signal in the tumor
Structure (SMILES): CCCCCCCCCCCCCCCCCCN1/C(=C/C=C/C=C/C=C/C2=[N+](CCCCCCCCCCCCCCCCCC)c3ccccc3C2(C)C)C(C)(C)c2ccccc21.[I-] [free DiR]
- Tissues with strongest DiR signal (FIG. 9, tumors and organs) [1]: strongest signal in the lungs, liver, and spleen
